These results are taken from patent US20140288013A1, “METHODS AND COMPOSITIONS FOR THE MANAGEMENT OF CANCER USING 2-DG AND AN IGF-IR INHIBITOR” (priority 2011, published 2014).

One assay deals with A549. Nature of the assay: MTS assay, IC50 in LKB1-null NSCLC cell line A549. Type of assay: cell-based. Conditions: Homo sapiens. An excerpt: (§1) 2000 cells were seed in each well of a 96-well plate, and exposed to BMS754807 or 2-DG at indicated concentration for 48 hrs.
(§2) Analysis focused on NSCLC cell lines with LKB1 inactivation mutation. A549 and H460 both contain a Q37 to nonsense mutation, and H157 contains exon 2 and 3 deletion. All these mutations results in the loss of LKB1 protein function. MTS assay was used to measure the IC50 of BMS754807 and 2-DG in these cells (FIG. 1).

Assay [1] concerns H460. Nature of the assay: MTS assay, IC50 in LKB1-null NSCLC cell line H460. The format is cell-based. The note with it: Homo sapiens.
From the text: as §1, §2

In assay [2] the test system is H157. Nature of the assay: MTS assay, IC50 in LKB1-null NSCLC cell line H157. The format is cell-based. Conditions: Homo sapiens.
From the text: as §1, §2
(In general: Tetrazolium dyes change colour on reduction, which living cells bring about.)

Assay [3] has as its system H460. Nature of the assay: Combination index analysis of cell proliferation, H460. The format is cell-based. Conditions: Homo sapiens.
The test system of assay [4] is H157. Nature of the assay: Combination index analysis of cell proliferation, H157. Type of assay: cell-based. Conditions: Homo sapiens.
In assay [5] the test system is AKT. Conditions: through IGF1R and PI3K; cited from earlier work.
Assay [6] has as its target IGF-I and IGF-binding protein 3 (IGFBP3) (Homo sapiens, UniProt P05019+P17936). Conditions: 2-DG treatments; cited from earlier work.
In a further assay the test system is IGF1R. Nature of the assay: 2-DG induced IGF1R phosphorylation in LKB1-null NSCLC cell lines. Type of assay: cell-based.
Assay [7] concerns AKT. Nature of the assay: 2-DG induced AKT phosphorylation in LKB1-null NSCLC cell lines. The note with it: for Akt phosphorylation induced by 2-DG: FIG. 2, cell line not named at the place; for 2-DG induced AKT phosphorylation: pre-incubated with 10 μM BMS754807 for 30 minutes, then 25 mM 2-DG. Type of assay: cell-based. As to the method:
Whether 2-DG induced AKT phosphorylation can be blocked by BMS754807 was determined. LKB1-null NSCLC cell lines was pre-incubated with 10 μM of BMS754807 for 30 minutes, and then stimulated with 25 mM 2-DG to induce phosphorylation. BMS754807 blocked 2-DG induced IGF1R and AKT phosphorylation in H460, and H157 cells.

Structures are written as SMILES. Read-outs that look alike come from different tables or passages of the source.

Chain of IGF-I and IGF-binding protein 3 (IGFBP3) (P17936 28-291, species assumed): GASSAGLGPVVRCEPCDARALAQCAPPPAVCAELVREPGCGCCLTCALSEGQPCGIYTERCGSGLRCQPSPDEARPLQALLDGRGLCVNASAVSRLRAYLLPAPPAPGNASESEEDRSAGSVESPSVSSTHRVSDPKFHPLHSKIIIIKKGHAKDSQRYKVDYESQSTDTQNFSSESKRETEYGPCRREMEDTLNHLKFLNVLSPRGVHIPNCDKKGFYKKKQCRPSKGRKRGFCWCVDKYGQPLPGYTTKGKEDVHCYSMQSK
Chain of IGF-I and IGF-binding protein 3 (IGFBP3) (P05019 49-118 limits assumed, species assumed): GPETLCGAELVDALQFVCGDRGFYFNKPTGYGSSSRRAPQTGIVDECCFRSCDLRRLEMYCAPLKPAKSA

As to `O=CC[C@@H](O)[C@H](O)[C@H](O)CO` [2-DG, 2-Deoxyglucose], the half-maximal inhibitory concentration (IC50) (commonly the point on the concentration scale where inhibition reaches its midpoint) with A549 (A549, MTS assay, 48 hrs, read-out: IC50) is 15.7 mM; in the assay with H460 [1] (NCI-H460, H460, MTS assay, 48 hrs, read-out: IC50), 14.1 mM; in the assay on H157 [2] (NCI-H157, H157, MTS assay, 48 hrs, read-out: IC50) it was 21.8 mM. Moreover, the viability at 2500 µM with H460 [3] (NCI-H460, 2-DG 2.5 mM, read-out: FA2-DG (fraction growth inhibition by 2-DG alone)) was 95%; in the assay on H157 [4] (NCI-H157, 2-DG 2.5 mM, read-out: FA2-DG (fraction growth inhibition by 2-DG alone)) it was 93%. The viability at 5000 µM in the assay with H460 [3] (NCI-H460, 2-DG 5.0 mM, read-out: FA2-DG (fraction growth inhibition by 2-DG alone)) came to 81%; in the assay on H157 [4] (NCI-H157, 2-DG 5.0 mM, read-out: FA2-DG (fraction growth inhibition by 2-DG alone)), 80%. For the same compound, the viability at 10000 µM came to 71% with H460 [3] (NCI-H460, 2-DG 10.0 mM, read-out: FA2-DG (fraction growth inhibition by 2-DG alone)) and 69% with H157 [4] (NCI-H157, 2-DG 10.0 mM, read-out: FA2-DG (fraction growth inhibition by 2-DG alone)). Also, in the assay with AKT [5], the “activation of prosurvival oncoprotein AKT” value is on record as “activates”. Also, the “binding between IGF-I and IGFBP3” value in assay [6] was “disrupted”.
On to `CC1(C(=O)Nc2ccc(F)nc2)CCCN1c1nc(Nc2cc(C3CC3)[nH]n2)c2cccn2n1` (stereo not shown) [BMS-754807, 1-(4-((5-cyclopropyl-1H-pyrazol-3-yl)amino)pyrrolo[2,1-f][1,2,4]triazin-2-yl)-N-(6-fluoropyridin-3-yl)-2-methylpyrrolidine-2-carboxamide], for which the IC50 was determined as 0.0166 mM with A549 (A549, 48 h); 0.00325 mM in the assay with H460 [1] (NCI-H460, 48 h); 0.0108 mM in the assay with H157 [2] (NCI-H157, 48 h). For the same compound, the viability at 5 µM in the assay on H460 [3] (NCI-H460, BMS-754807 5.0 uM, read-out: FABMS-754807 (fraction growth inhibition by BMS-754807 alone)) amounted to 80%; with H157 [4] (NCI-H157, BMS-754807 5.0 uM, read-out: FABMS-754807 (fraction growth inhibition by BMS-754807 alone)), 99%. For the same compound, the viability at 10 µM turned out to be 69% in the assay on H460 [3] (NCI-H460, BMS-754807 10.0 uM, read-out: FABMS-754807 (fraction growth inhibition by BMS-754807 alone)) and 82% in the assay with H157 [4] (NCI-H157, BMS-754807 10.0 uM, read-out: FABMS-754807 (fraction growth inhibition by BMS-754807 alone)). Further, the “2-DG induced IGF1R phosphorylation” value is reported as “blocked” in the assay with IGF1R (FIG. 2, cell line not named at the place); “blocked” with IGF1R (H157 cells, pre-incubated with 10 μM BMS754807 for 30 minutes, then 25 mM 2-DG); “blocked” in the assay on IGF1R (H460 cells, pre-incubated with 10 μM BMS754807 for 30 minutes, then 25 mM 2-DG). Further, the “Akt phosphorylation induced by 2-DG” value with AKT [7] is “block”; in the assay on AKT [7] (listed as BMS754807), “blocked”. For the same compound, the “2-DG induced AKT phosphorylation” value in the assay with AKT [7] (H157 cells) and in the assay with AKT [7] (H460 cells) was “blocked” in each case.
